These results are taken from US9079859B2, “Synthetic lethal targeting of glucose transport” (AUCKLAND UNISERVICES LIMITED, priority 2011, dated 2015).

SMILES strings stand for the structures.

Format in all cases: cell-based
One experiment deals with 786-O cells. Description: Glucose uptake (2-deoxy-D-[3H]glucose), 786-O. The following applies: 5 μM (FIG. 6C). The method, then: (§1) Glucose Uptake. One hundred thousand cells were plated per well in a six-well plate. The next day, cells were treated with the indicated concentration of drug and incubated for the indicated time. Cells were then washed twice with phosphate-buffered saline, incubated in low-glucose medium for 30 minutes, and 3H-2-deoxyglucose (0.5 μCi) was added in 1 ml of glucose-free media for an additional hour. Cells were washed twice in PBS and lysed (0.2 N NaOH and 0.2% sodium dodecyl sulfate). Glucose uptake was quantified with a scintillation counter.

For experiment [1], the system named is RCC4 cells with HIF-1β silenced. Description: Glucose uptake in RCC4 cells with siRNA to HIF-1β.
Text: To further investigate the relationship between HIF and STF-31 toxicity, we silenced HIF-1β in RCC4 cells and assessed its affect on glucose uptake (FIG. 6D). Transiently inhibiting HIF-1β, the constitutively expressed binding partner of HIF-1α and HIF-2α reduces HIF activity in RCC4 cells to the levels found in wild-type VHL cells. Glucose uptake was insensitive to treatment with STF-31 when the HIF-1β was silenced in RCC4 cells, further supporting the concept that the HIF-dependent glucose uptake was responsible for the differential toxicity of STF-31 to VHL-deficient renal carcinomas (FIG. 2E).
as §1

The subject of experiment [2] is RCC4/VHL cells. Description: Necrotic cell death by trypan blue, RCC4/VHL. The following applies: 5 μM, 3 days. The method, then:
Cell Viability Assays. For 2,3-bis[2-methoxy-4-nitro-5-sulfophenyl]-2H-tetrazolium-5-carboxanilide (XTT) assays, five thousand cells were plated in 96-well plates. The next day, vehicle (DMSO) or drug was added by serial dilution. Four days later, media were aspirated, XTT solution (0.3 mg/ml of XTT (Sigma), […] N-methyl dibenxopyrazine methyl sulfate (Sigma) in phenol red-free media) was added, and the plates were incubated at 37° C. for 1-2 hours. Metabolism of XTT was quantified by measuring the absorbance at 450 nm. IC50s were calculated using linear interpolation. For clonogenic survival assays, three hundred cells were plated per 60 mm tissue culture dish. The cells were allowed to attach overnight and then treated with vehicle or drug for 14 days. Colonies were fixed and stained with crystal violet (0.1% crystal violet in 95% ethanol). All conditions were measured in triplicate and each experiment was done in duplicate or triplicate. To determine necrosis, cells were treated with drug for a given time point. Media and cells were collected, centrifugated, and resuspended in 0.4% trypan blue (Invitrogen). Live and dead cells were counted on a hematocytometer.

For a further experiment, the system named is hexokinase. Description: Hexokinase activity in whole-cell lysates, RCC4/VHL. From the text: We then examined whether this decrease in glycolysis in response to STF-31 was due to a decrease in glucose uptake or whether STF-31 inhibited a particular glycolytic enzyme. To test this, we measured glucose uptake using 2-deoxy-D-[^3H] glucose, a non-hydrolyzable, radioactive glucose analog. STF-31 impaired glucose uptake in RCC4 and 786-O cells but not in the matched isogenic cells expressing wild-type VHL (FIGS. 2B, 6A, and 6C). RCC4/VHL cells had lower baseline levels of glucose uptake compared to RCC4 cells and were unaffected by treatment with STF-31. […] Because the phosphorylation of glucose to glucose-6-phosphate is important for preventing glucose efflux from the cell, we asked whether STF-31 might function by inhibiting the phosphorylation of glucose by hexokinase. […]
(§2) Cell Culture and Reagents. […] GLUT1 was detected with anti-GLUT1 antibody from NeoMarkers/LabVision/Fisher. For immunofluorescent studies, GLUT1, GLUT2, and GLUT3 antibodies were purchased from R&D. Pyruvate/lactate levels and hexokinase activity were both measured by fluorometric assay (BioVision and Sigma-Aldrich, respectively). ATP levels were measured by bioluminescence assay (ATP Determination Kit from Molecular Probes/Invitrogen). […]

The subject of experiment [3] is RCC4 cells. Description: Glucose uptake (2-deoxy-D-[3H]glucose), RCC4. The method, then:
as §1

In experiment [4] the test system is RCC4/VHL cells. Description: Glucose uptake (2-deoxy-D-[3H]glucose), RCC4/VHL. The method, then:
as §1

Experiment [5] concerns RCC4 cells. Description: Lactate production, VHL-deficient cells. Set-up: dose or concentration left out as unconfirmed. Particulars: VHL-deficient cells vs control-treated; STF-31 as printed in FIG. 2 legend. The method, then: HIF is important to adapting to low oxygen conditions through the transcription of many genes, including those involved in glucose metabolism. It was hypothesized that STF-31 might inhibit metabolic pathways, leading to necrotic cell death. To examine whether this compound alters glycolysis, intracellular lactate, which is rapidly converted from the glycolysis end product pyruvate, and extracellular acidification were measured. Baseline levels of glycolysis were lower in wild-type VHL cells compared to VHL-deficient cells (FIGS. 2, A and B), likely a result of the constitutive expression of HIF and subsequent overexpression of glucose transporters and glycolytic enzymes in the latter.
as §2, with “Reagents. All cells were grown in DMEM+10% FCS. ACHN and ACHN shVHL were a kind gift from George V. Thomas (UCLA). HIF overexpressing clones were described previously (Sutphin et al., Cancer Res, 67:5896-5905 (2007)).” for “Reagents.”

Experiment [6] deals with RCC4/VHL cell clones overexpressing HIF. Description: Sensitivity of RCC4/VHL clones overexpressing HIF. The following applies: non-degradable, constitutively active HIF; two clones. The method, then:
The hypoxia-inducible factor (HIF) family of transcription factors are VHL targets and we next examined whether toxicity was HIF-dependent (Iliopoulos et al., Nat Med., 1: 822-826 (1995); Maxwell et al., Nature, 399:271-275 (1999); Zimmer et al., Mol Cancer Res., 2:89-95 (2004)). A non-degradable, constitutively active HIF was overexpressed in RCC4/VHL cells. Two individual HIF-overexpressing clones were tested for their sensitivity to STF-31 (Sutphin et al., Cancer Res 67:5896-5905 (2007)). […] Furthermore, the sensitivity of RCCs that lack functional VHL to STF-31 is directly linked to the aberrant up-regulation of HIF.

A further experiment relates to p53. Description: DNA damage response (p53, phospho-p53 Western blot). The following applies: RCC4 and RCC4/VHL; 1.25, 2.5 and 5 μM.
[7] abbreviates: increasing concentrations of STF-31.

`CC(C)(C)c1ccc(S(=O)(=O)NCc2ccc(C(=O)Nc3cccnc3)cc2)cc1` [STF-31]: the “glucose uptake in 786-O cells” value in the experiment on 786-O cells is on record as “impaired”. The “glucose uptake when HIF-1β was silenced in RCC4 cells” value in [1] was “insensitive”. Besides, the “necrotic cell death of RCC4/VHL cells” value in the experiment on RCC4/VHL cells [2] is reported as “relatively insensitive”. The “hexokinase activity of RCC4/VHL cells” value in the experiment with hexokinase was “unchanged”. Besides, the “glucose uptake in RCC4 cells” value with RCC4 cells [3] (2-deoxy-D-[3H]glucose) was “impaired”. Also, the “glucose uptake in RCC4 cells versus concentration” value in the experiment with RCC4 cells [3] (setting [7]) is “dose-dependent”. Besides, the “glucose uptake in RCC4/VHL cells” value with RCC4/VHL cells [4] (2-deoxy-D-[3H]glucose) is “unaffected”. For the same compound, the “glucose uptake in RCC4/VHL cells versus concentration” value in the experiment on RCC4/VHL cells [4] (setting [7]) is “relatively stable”. Besides, the “inhibition of lactate production” value in the experiment on RCC4 cells [5] is listed as “about 60%”. Further, in [6], the “effect of ectopic HIF expression in wild-type VHL cells on response to STF-31” value is given as “sensitized”. The “total p53 or phospho-p53 levels” value in the experiment on p53 is listed as “did not increase”.
